From patent publication US6906205B2, “Spiro and dispiro 1,2,4-trioxolane antimalarials” (Medicines for Malaria Venture MMV, priority 2002, dated 2005)
In brackets after ≈: the same amount, converted by molar mass.

How the values were obtained:
[1] = tested on: P. falciparum NF54 strain (sensitive to standard antimalarials); assay: semiautomated microdilution assay, [3H]-hypoxanthine incorporation, NF54 strain; format: cell-based, Plasmodium falciparum; settings: NF54 strain, 72 h incubation
In short: (§1)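 Logit regression analysis was used to estimate IC50 values. Parasites were intraerythrocytic forms from asynchronous stock cultures, and compounds were tested by semiautomated microdilution.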

[2] = tested on: ANKA strain of P. berghei; assay: single dose STI in vivo screen in infected mice; parameters: species or system Plasmodium berghei; settings: for Activity (%) po / Activity (%) sc / Activity (%) SSVpo: percent reduction in parasitemia day 3 post-infection, mice; for Activity (%) po / Survival (days) po: single 10 mg/kg po in 3% ethanol and 7% Tween 80; for Activity (%) sc / Survival (days) sc: single 10 mg/kg sc in 3% ethanol and 7% Tween 80; for Activity (%) SSVpo: single po dose in standard suspending vehicle (SSV); for Survival (days) po / Survival (days) sc / Survival (days) SSVpo: untreated control 5.6 ± 0.3; for Survival (days) SSVpo: single po dose in SSV
In short: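 Groups of 3-5 Moro SPF or NMRI mice infected with the ANKA strain of P. berghei received a single dose of trioxolane on day one post-infection. The compound was given in 3% ethanol and 7% Tween 80 or in SSV (0.5% w/v CMC, 0.5% v/v benzyl alcohol, 0.4% v/v Tween 80, 0.9% w/v sodium chloride in water). Antimalarial activity was scored as percent reduction in parasitemia on day three and as survival time versus untreated controls. Survival to day 30 counted as cure.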

[3] = tested on: P. falciparum K1 strain (Thailand resistant to chloroquine); assay: semiautomated microdilution assay, [3H]-hypoxanthine incorporation, K1 strain; format: cell-based, Plasmodium falciparum; settings: K1 strain, 72 h incubation
In short: as §1

SMILES: C1C2CC3CC1CC(C2)C31OOC2(CCC(NC3CC3)CC2)O1 (centres unmarked) [OZ185]
- IC50 (ng/ml) NF54 [1]: 1.4 ng/mL (≈ 4.38 nM)
- Activity (%) po [2]: 86%
- Activity (%) sc [2]: 99.96%
- Activity (%) SSVpo [2]: 56%
- Survival (days) po [2]: 7.7 days
- Survival (days) sc [2]: 10.7 days
- Survival (days) SSVpo [2]: 6.7 days
- IC50 (ng/ml) K1 [3]: 1.1 ng/mL (≈ 3.44 nM)

SMILES: COCC(=O)N[C@H]1CC[C@]2(CC1)OOC1(O2)C2CC3CC(C2)CC1C3 (some centres unmarked) [OZ186]
- IC50 (ng/ml) NF54 [1]: >10/>10 ng/ml
- Activity (%) po [2]: 87%
- Activity (%) sc [2]: 67%
- Activity (%) SSVpo [2]: 96%
- Survival (days) po [2]: 8.0 days
- Survival (days) sc [2]: 8.0 days
- Survival (days) SSVpo [2]: 9.0 days
- IC50 (ng/ml) K1 [3]: >10/>10 ng/ml

SMILES: CN(C)C(=O)N[C@H]1CC[C@]2(CC1)OOC1(O2)C2CC3CC(C2)CC1C3 (some centres unmarked) [OZ187]
- IC50 (ng/ml) NF54 [1]: 6.8 ng/mL (≈ 19.4 nM)
- Activity (%) po [2]: 77%
- Activity (%) sc [2]: 77%
- Activity (%) SSVpo [2]: 94%
- Survival (days) po [2]: 7.7 days
- Survival (days) sc [2]: 7.0 days
- Survival (days) SSVpo [2]: 10.0 days
- IC50 (ng/ml) K1 [3]: 4.0 ng/mL (≈ 11.4 nM)

SMILES: CN(C)S(=O)(=O)N1CCC2(CC1)OOC1(O2)C2CC3CC(C2)CC1C3 (centres unmarked) [OZ190]
- IC50 (ng/ml) NF54 [1]: 1.0 ng/mL (≈ 2.68 nM)
- Activity (%) po [2]: 98%
- Activity (%) sc [2]: 2%
- Activity (%) SSVpo [2]: 78%
- Survival (days) po [2]: 8.7 days
- Survival (days) sc [2]: 5.7 days
- Survival (days) SSVpo [2]: 7.7 days
- IC50 (ng/ml) K1 [3]: 0.16 ng/mL (≈ 0.43 nM)

SMILES: N=C(N)N1CCC2(CC1)OOC1(O2)C2CC3CC(C2)CC1C3 (centres unmarked) [OZ191]
- IC50 (ng/ml) NF54 [1]: > 10 ng/mL
- Activity (%) po [2]: 7%
- Activity (%) sc [2]: 17%
- Activity (%) SSVpo [2]: 5%
- Survival (days) po [2]: 5.7 days
- Survival (days) sc [2]: 6.0 days
- Survival (days) SSVpo [2]: 5.7 days
- IC50 (ng/ml) K1 [3]: 6.0 ng/mL (≈ 19.5 nM)

SMILES: Fc1ccc(OC2CCC3(CC2)OOC2(O3)C3CC4CC(C3)CC2C4)cc1 (centres unmarked) [OZ193]
- IC50 (ng/ml) NF54 [1]: 8.3 ng/mL (≈ 22.2 nM)
- Activity (%) po [2]: 99.75%
- Activity (%) sc [2]: 99.92%
- Activity (%) SSVpo [2]: 93%
- Survival (days) po [2]: 9.3 days
- Survival (days) sc [2]: 11.0 days
- Survival (days) SSVpo [2]: 8.0 days
- IC50 (ng/ml) K1 [3]: 5.5 ng/mL (≈ 14.7 nM)

SMILES: O=C(O)CCC(=O)N[C@H]1CC[C@]2(CC1)OOC1(O2)C2CC3CC(C2)CC1C3 (some centres unmarked) [OZ196]
- IC50 (ng/ml) NF54 [1]: >10/>10 ng/ml
- Activity (%) po [2]: 10%
- Activity (%) sc [2]: 17%
- Activity (%) SSVpo [2]: 0%
- Survival (days) po [2]: 6.0 days
- Survival (days) sc [2]: 5.7 days
- Survival (days) SSVpo [2]: 5.3 days
- IC50 (ng/ml) K1 [3]: >10/>10 ng/ml

SMILES: O=C(O)c1cccc([C@H]2CC[C@]3(CC2)OOC2(O3)C3CC4CC(C3)CC2C4)c1 (some centres unmarked) [OZ198]
- IC50 (ng/ml) NF54 [1]: >10/>10 ng/ml
- Activity (%) po [2]: 4%
- Activity (%) sc [2]: 6%
- Activity (%) SSVpo [2]: 6%
- Survival (days) po [2]: 5.7 days
- Survival (days) sc [2]: 5.7 days
- Survival (days) SSVpo [2]: 6.0 days
- IC50 (ng/ml) K1 [3]: >10/>10 ng/ml

SMILES: CCS(=O)(=O)CCN1CCC2(CC1)OOC1(O2)C2CC3CC(C2)CC1C3 (centres unmarked) [OZ200]
- IC50 (ng/ml) NF54 [1]: 2.9 ng/mL (≈ 7.52 nM)
- Activity (%) po [2]: 81%
- Activity (%) sc [2]: 92%
- Activity (%) SSVpo [2]: 78%
- Survival (days) po [2]: 7.0 days
- Survival (days) sc [2]: 8.0 days
- Survival (days) SSVpo [2]: 7.3 days
- IC50 (ng/ml) K1 [3]: 1.0 ng/mL (≈ 2.59 nM)

SMILES: Fc1ccc(NC2CCC3(CC2)OOC2(O3)C3CC4CC(C3)CC2C4)cc1 (centres unmarked) [OZ201]
- IC50 (ng/ml) NF54 [1]: 3.1 ng/mL (≈ 8.3 nM)
- Activity (%) po [2]: 100/100/100%
- Activity (%) sc [2]: 100/100/100%
- Activity (%) SSVpo [2]: 100/100/100%
- Survival (days) po [2]: 13 days
- Survival (days) sc [2]: 25 days
- Survival (days) SSVpo [2]: 10.3 days
- IC50 (ng/ml) K1 [3]: 2.0 ng/mL (≈ 5.36 nM)

SMILES: CC(=O)OC(C)(C)C(=O)N[C@H]1CC[C@]2(CC1)OOC1(O2)C2CC3CC(C2)CC1C3 (some centres unmarked) [OZ202]
- IC50 (ng/ml) NF54 [1]: 7.9 ng/mL (≈ 19.4 nM)
- Activity (%) po [2]: 79%
- Activity (%) sc [2]: 74%
- Activity (%) SSVpo [2]: 51%
- Survival (days) po [2]: 7.0 days
- Survival (days) sc [2]: 7.3 days
- Survival (days) SSVpo [2]: 7.3 days
- IC50 (ng/ml) K1 [3]: 6.0 ng/mL (≈ 14.7 nM)

SMILES: O=C(N1CCCC1)N1CCC2(CC1)OOC1(O2)C2CC3CC(C2)CC1C3 (centres unmarked) [OZ203]
- IC50 (ng/ml) NF54 [1]: 6.7 ng/mL (≈ 18.5 nM)
- Activity (%) po [2]: 87%
- Activity (%) sc [2]: 99.72%
- Activity (%) SSVpo [2]: 99.42%
- Survival (days) po [2]: 7.3 days
- Survival (days) sc [2]: 9.7 days
- Survival (days) SSVpo [2]: 8.7 days
- IC50 (ng/ml) K1 [3]: 3.9 ng/mL (≈ 10.8 nM)

SMILES: COC(=O)c1ccc(C[C@H]2CC[C@]3(CC2)OOC2(O3)C3CC4CC(C3)CC2C4)cc1 (some centres unmarked) [OZ204]
- IC50 (ng/ml) NF54 [1]: >10/>10 ng/ml
- Activity (%) po [2]: 0/0/0%
- Activity (%) sc [2]: 0/0/0%
- Activity (%) SSVpo [2]: 0/0/0%
- Survival (days) po [2]: 6.0 days
- Survival (days) sc [2]: 6.0 days
- Survival (days) SSVpo [2]: 6.3 days
- IC50 (ng/ml) K1 [3]: >10/>10 ng/ml

SMILES: O=C1CNC(=O)N1C[C@H]1CC[C@]2(CC1)OOC1(O2)C2CC3CC(C2)CC1C3 (some centres unmarked) [OZ206]
- IC50 (ng/ml) NF54 [1]: 2.7 ng/mL (≈ 7.17 nM)
- Activity (%) po [2]: 93%
- Activity (%) sc [2]: 91%
- Activity (%) SSVpo [2]: 92%
- Survival (days) po [2]: 8.0 days
- Survival (days) sc [2]: 9.7 days
- Survival (days) SSVpo [2]: 8.7 days
- IC50 (ng/ml) K1 [3]: 1.0 ng/mL (≈ 2.66 nM)

SMILES: CCOC(=O)c1cccc([C@H]2CC[C@]3(CC2)OOC2(O3)C3CC4CC(C3)CC2C4)c1 (some centres unmarked) [OZ208]
- IC50 (ng/ml) NF54 [1]: 6.5 ng/mL (≈ 15.8 nM)
- Activity (%) po [2]: 0%
- Activity (%) sc [2]: 10%
- Activity (%) SSVpo [2]: 29%
- Survival (days) po [2]: 6.3 days
- Survival (days) sc [2]: 5.7 days
- Survival (days) SSVpo [2]: 6.7 days
- IC50 (ng/ml) K1 [3]: 6.0 ng/mL (≈ 14.5 nM)

SMILES: O=S(=O)(C[C@H]1CC[C@]2(CC1)OOC1(O2)C2CC3CC(C2)CC1C3)c1ccccc1 (some centres unmarked) [OZ210]
- IC50 (ng/ml) NF54 [1]: 1.6 ng/mL (≈ 3.82 nM)
- Activity (%) po [2]: 99.23%
- Activity (%) sc [2]: 99.94%
- Activity (%) SSVpo [2]: 77%
- Survival (days) po [2]: 9.3 days
- Survival (days) sc [2]: 10.3 days
- Survival (days) SSVpo [2]: 8.0 days
- IC50 (ng/ml) K1 [3]: 1.4 ng/mL (≈ 3.34 nM)

SMILES: c1cnn(C[C@H]2CC[C@]3(CC2)OOC2(O3)C3CC4CC(C3)CC2C4)c1 (some centres unmarked) [OZ211]
- IC50 (ng/ml) NF54 [1]: 1.2 ng/mL (≈ 3.48 nM)
- Activity (%) po [2]: 82%
- Activity (%) sc [2]: 99.90%
- Activity (%) SSVpo [2]: 78%
- Survival (days) po [2]: 8.0 days
- Survival (days) sc [2]: 8.7 days
- Survival (days) SSVpo [2]: 7.3 days
- IC50 (ng/ml) K1 [3]: 1.0 ng/mL (≈ 2.9 nM)

SMILES: O=C1c2ccccc2S(=O)(=O)N1C[C@H]1CC[C@]2(CC1)OOC1(O2)C2CC3CC(C2)CC1C3 (some centres unmarked) [OZ212]
- IC50 (ng/ml) NF54 [1]: 2.9 ng/mL (≈ 6.31 nM)
- Activity (%) po [2]: 66%
- Activity (%) sc [2]: 59%
- Activity (%) SSVpo [2]: 25%
- Survival (days) po [2]: 6.7 days
- Survival (days) sc [2]: 8.0 days
- Survival (days) SSVpo [2]: 6.7 days
- IC50 (ng/ml) K1 [3]: 2.7 ng/mL (≈ 5.88 nM)

SMILES: CONC(=O)C[C@H]1CC[C@]2(CC1)OOC1(O2)C2CC3CC(C2)CC1C3 (some centres unmarked) [OZ213]
- IC50 (ng/ml) NF54 [1]: 2.8 ng/mL (≈ 7.97 nM)
- Activity (%) po [2]: 83%
- Activity (%) sc [2]: 85%
- Activity (%) SSVpo [2]: 74%
- Survival (days) po [2]: 8.0/8.0/8.0 days
- Survival (days) sc [2]: 8.0/8.0/8.0 days
- Survival (days) SSVpo [2]: 8.0/8.0/8.0 days
- IC50 (ng/ml) K1 [3]: 2.3 ng/mL (≈ 6.54 nM)
